Reference: patent publication US8563543B2, “Iminothiadiazine dioxide compounds as bace inhibitors, compositions, and their use” (Merck Sharp & Dohme Corp., priority 2009, dated 2013)
Where “and” joins values, the source holds several entries; their conditions need not be identical. Equal values may be shown once.

How the values were obtained:
[1] = Solution stability (hydrolysis) by LC/MS in pH 7.4 phosphate buffer; format: physicochemical; conditions: for hydrolysis: 25° C. over 6 days; for hydrolysis / hydrolysis product share of the sample: pH 7.4
Method: The following procedures were used to measure solution stability, and to compare the solution stability of the compounds of the invention to that of otherwise structurally identical iminopyrimidinones.
Stock solutions of the tested compounds were prepared by dissolving about 3 mg of each compound in 3 mL of acetonitrile. Standards for test compounds were prepared by diluting 1 mL of the stock solution with an additional 4 mL of acetonitrile. These standards were stored at 4° C. Samples were prepared by diluting 1 mL of the stock solution with 4 mL of 50 mM pH 7.4 phosphate buffer. These samples were stored at the appropriate temperature in the absence of light. Standards and samples were analyzed by LC/MS initially and at day 1, day 4, and day 6. • HPLC Conditions: • Mobile phase A: 10 mM pH 5 ammonium acetate buffer:methanol (90:10) • Mobile phase B: 10 mM pH 5 ammonium acetate buffer:methanol (10:90) • Column: Zorbax SB-Phenyl 4.6×50 mm, 1.8 μm • Column temperature: 40° C. • Flow: 0.8 mL/min. • Gradient:
• Detectors: UV at 220 nm and 236 nm • MS, ES ionization, positive mode, for identification only at final time point. • The terms reported in the tables below have the following meanings: • Area % is the integration of peak from HPLC as reported by Waters Empower II software. • RRT is the relative retention time of new product compared to the standard of the test compound. • Formula for RRT is:
[formula] • M+1 is the mass observed including protonation (+1 mass unit). • ND stands for no peak detected by the UV detector. • * stands for no ion detected by the mass spectrometer.

[2] = biological target: soluble human BACE1 catalytic domain (Homo sapiens, UniProt P56817); assay: BACE1 HTRF FRET assay; format: biochemical; conditions: calculated from IC50 using the Cheng-Prusoff equation
Chain of soluble human BACE1 catalytic domain (P56817 75-416 limits assumed): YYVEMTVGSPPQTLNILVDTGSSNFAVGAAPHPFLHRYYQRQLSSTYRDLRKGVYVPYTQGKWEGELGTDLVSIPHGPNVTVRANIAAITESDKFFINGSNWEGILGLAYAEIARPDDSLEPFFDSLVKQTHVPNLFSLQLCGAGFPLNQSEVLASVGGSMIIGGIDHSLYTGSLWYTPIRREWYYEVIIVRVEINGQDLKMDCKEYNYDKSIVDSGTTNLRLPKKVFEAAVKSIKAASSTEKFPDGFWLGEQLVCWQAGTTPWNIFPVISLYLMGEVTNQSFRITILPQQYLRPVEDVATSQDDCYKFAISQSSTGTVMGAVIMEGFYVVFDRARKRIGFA
From the text: Dimethyl Sulfoxide (DMSO)
Recombinant human soluble BACE1 catalytic domain (>95% pure)
APP Swedish mutant peptide substrate (QSY7-APP^swe-Eu): QSY7-[…]-Europium-amide
A homogeneous time-resolved FRET assay was used to determine IC50 values for inhibitors of the soluble human BACE1 catalytic domain. This assay monitored the increase of 620 nm fluorescence that resulted from BACE1 cleavage of an APPswedish APP^swe mutant peptide FRET substrate (QSY7-[…]-Europium-amide). This substrate contained an N-terminal QSY7 moiety that served as a quencher of the C-terminal Europium fluorophore (620 nm Em). In the absence of enzyme activity, 620 nm fluorescence was low in the assay and increased linearly over 3 hours in the presence of uninhibited BACE1 enzyme. Inhibition of BACE1 cleavage of the QSY7-APP^swe-Eu substrate by inhibitors was manifested as a suppression of 620 nm fluorescence.
Varying concentrations of inhibitors at 3× the final desired concentration in a volume of 10 ul were preincubated with purified human BACE1 catalytic domain (3 nM in 10 μl) for 30 minutes at 30° C. in reaction buffer containing 20 mM Na-Acetate pH 5.0, 10% glycerol, 0.1% Brij-35 and 7.5% DSMO. […] The 620 nm fluorescence was then read on a Rubystar HTRF plate reader (BMG Labtechnologies) using a 50 μs delay followed by a 400 millisecond acquisition time window. […]

[3] = biological target: T1, purified human autoBACE-2 (Homo sapiens, UniProt Q9Y5Z0); assay: BACE-2 time-resolved endpoint proteolysis assay (BACE-HTRF assay); format: biochemical; conditions: calculated from IC50 using the Cheng-Prusoff equation
T1 sequence (Q9Y5Z0 63-473 limits assumed): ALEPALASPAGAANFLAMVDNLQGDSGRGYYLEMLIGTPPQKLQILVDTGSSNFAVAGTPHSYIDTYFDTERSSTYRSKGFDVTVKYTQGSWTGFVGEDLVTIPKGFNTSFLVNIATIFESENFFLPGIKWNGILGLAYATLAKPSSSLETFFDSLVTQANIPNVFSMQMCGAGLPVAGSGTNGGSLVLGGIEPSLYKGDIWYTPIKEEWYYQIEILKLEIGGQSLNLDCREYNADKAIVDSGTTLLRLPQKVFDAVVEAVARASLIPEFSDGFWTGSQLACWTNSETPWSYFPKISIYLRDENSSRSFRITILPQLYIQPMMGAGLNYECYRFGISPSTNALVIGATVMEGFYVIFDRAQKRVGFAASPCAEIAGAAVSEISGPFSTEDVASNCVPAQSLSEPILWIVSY
Method: Inhibitor IC50 values at purified human autoBACE-2 were determined in a time-resolved endpoint proteolysis assay that measures hydrolysis of the QSY7-[…]-Eu-amide FRET peptide substrate (BACE-HTRF assay). RACE-mediated hydrolysis of this peptide results in an increase in relative fluorescence (RFU) at 620 nm after excitation with 320 nm light. Inhibitor compounds, prepared at 3× the desired final concentration in 1×BACE assay buffer (20 mM sodium acetate pH 5.0, 10% glycerol, 0.1% Brij-35) supplemented with 7.5% DMSO were pre-incubated with an equal volume of autoBACE-2 enzyme diluted in 1×RACE assay buffer (final enzyme concentration 1 nM) in black 384-well NUNC plates for 30 minutes at 30° C. […] DMSO was present at 5% final concentration in the assay. Following laser excitation of sample wells at 320 nm, the fluorescence signal at 620 nm was collected for 400 ms following a 50 μs delay on a RUBYstar HTRF plate reader (BMG Labtechnologies). Raw RFU data was normalized to maximum (1.0 nM RACE/DMSO) and minimum (no enzyme/DMSO)RFU values. IC50 values were determined by nonlinear regression analysis (sigmoidal dose response, variable slope) of percent inhibition data with minimum and maximum values set to 0 and 100 percent respectively. Similar IC50 values were obtained when using raw RFU data. The Ki values were calculated from the IC50 using the Cheng-Prusoff equation.

[4] = Sample at pH 7.4, 25° C., Day 1
[5] = Sample at pH 7.4, 25° C., Day 4
[6] = Sample at pH 7.4, 25° C., Day 6
[7] = Sample at pH 7.4, 25° C., Initial
[8] = Sample initial, 40° C. and 60° C. studies
[9] = Standard in acetonitrile, stored at 4° C., Day 1
[10] = Standard in acetonitrile, stored at 4° C., Day 4
[11] = Standard in acetonitrile, stored at 4° C., Day 6
[12] = Standard in acetonitrile, stored at 4° C., Initial

Compound | hydrolysis [1] | hydrolysis product share of the sample ([1]; 40° C. over 4 days) | hydrolysis product share of the sample ([1]; 60° C.) | Area %, Day 1 (parent peak) [1, 4] [%] | Area %, Day 4 (parent peak) [1, 5] [%] | Area %, Day 6 (parent peak) [1, 6] [%] | Area %, Initial (parent peak) [1, 7] [%] | Area %, Initial (parent peak) [1, 8] [%] | Area %, Day 1 (parent peak) [1, 9] | Area %, Day 4 (parent peak) [1, 10] [%] | Area %, Day 6 (parent peak) [1, 11] [%] | Area %, Initial (parent peak) [1, 12] | Area %, Day 1 (parent peak) ([1]; pH 7.4 at 40° C., Day 1) [%] | Area %, Day 4 (parent peak) ([1]; pH 7.4 at 40° C., Day 4) [%] | further results
CN1C(=N)N[C@](C)(c2ccc(F)cc2F)[C@@H](c2ccc(C(F)(F)F)cc2)C1=O [Compound Y] | 3.36% | 31.4% | 28.5% | 100.0 | 100.0 | 89.79 | 100.0 | 98.2 | 100.0% and 99.4% | 100.0 | 100.0 | 100.0% and 98.8% | 86.3 | 55.8 | Area %, Day 6 (hydrolysis product peak) [1, 6]: 3.36%; Area %, Initial (hydrolysis product peak) [1, 8]: 0.7%; Area %, Day 1 (hydrolysis product peak) ([1]; pH 7.4 at 40° C., Day 1): 10.5%; Area %, Day 4 (hydrolysis product peak) ([1]; pH 7.4 at 40° C., Day 4): 31.4%; Area %, Day 4 (unidentified peak, RRT 0.87) ([1]; pH 7.4 at 40° C., Day 4, no ion detected by the mass spectrometer): 5.8%; Area %, Day 1 (hydrolysis product peak) ([1]; pH 7.4 at 60° C., Day 1): 28.5%; Area %, Day 1 (parent peak) ([1]; pH 7.4 at 60° C., Day 1): 56.7%; Area %, Day 1 (unidentified peak, RRT 0.87) ([1]; pH 7.4 at 60° C., Day 1, no ion detected by the mass spectrometer): 6.6%
CN1C(=N)N[C@](C)(c2ccc(F)cc2F)[C@@H](c2ccc(C(F)(F)F)cc2)S1(=O)=O [Example 3] | no hydrolysis | no hydrolysis | no hydrolysis | 100.0 | 100.0 | 100.0 | 100.0 | 100.0 | 100.0% | 100.0 | 100.0 | 100.0% | 100.0 | 100.0 | Ki [2]: ~9 nM; Ki [3]: ~11 nM; Area %, Day 4 (parent peak) ([1]; pH 7.4 at 60° C., Day 4): 87.3%; Area %, Day 4 (unidentified peak, RRT 0.52) ([1]; pH 7.4 at 60° C., Day 4, no ion detected by the mass spectrometer): 12.7%
